Source: US10821115B2, “Compounds that inhibit Mcl-1 protein” (priority 2017, dated 2020)
pIC50: −log10 of the molar value. Where two headings read alike, the source gives them in different places.

Tests used:
[1] = biological target: recombinant human Mcl-1 (residues 171-327) / Bim interaction (Homo sapiens (Human), UniProt Q07820); test: biochemical; type: binding; conditions: TR-FRET, Mcl-1(171-327) / biotin-Bim (51-76); read-out: Mcl-1 HTRF IC50
[2] = tested on: human multiple myeloma cell line, OPM-2; test: Cell viability assay (OPM-2 10 FBS), CellTiter-Glo; type: cell-based
Procedure, shortened: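 Serially diluted test compounds are incubated 16 h with cells (3000/well) in RPMI 1640 supplemented with 10% FBS. Viability is then measured by luminescence and IC50 calculated by 4-parameter logistic fit.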

[3] = read-out: OPM-2 10% FBS IC50 IP, OPM-2 cells, 10% FBS, 16 h, CellTiter-Glo
[4] = Homo sapiens, OPM-2, 16 h, read-out: OPM-2 10% FBS IC50 IP, OPM-2 cells, 10% FBS, 16 h, CellTiter-Glo

Sequence of recombinant human Mcl-1 (residues 171-327) / Bim interaction (Q07820 171-327): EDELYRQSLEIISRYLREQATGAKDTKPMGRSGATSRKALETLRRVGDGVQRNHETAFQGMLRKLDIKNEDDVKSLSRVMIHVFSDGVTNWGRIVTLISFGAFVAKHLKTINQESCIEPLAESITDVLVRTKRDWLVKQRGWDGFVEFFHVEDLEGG

Structure (SMILES)	pIC50 [1]	pIC50 [2, 3]	pIC50 [2, 4]
C[C@@H]1[C@@H](C)C/C=C/[C@@](O)(C#CCCN(C)C)[C@@H]2CC[C@H]2CN2C[C@@]3(CCCc4cc(Cl)ccc43)COc3ccc(cc32)C(=O)NS1(=O)=O [Example 100308, (1S,3′R,6′R,7′S,8′E,11′S,12′R)-6-chloro-7′-(4-(dimethylamino)-1-butyn-1-yl)-7′-hydroxy-11′,12′-dimethyl-3,4-dihydro-2H,15′H-spiro[naphthalene-1,22′-[20]oxa[13]thia[1,14]diazatetracyclo [14.7.2.0~3,6~.0~19,24~]pentacosa[8,16,18,24]tetraen]-15′-one 13′,13′-dioxide]	10.48	5.93	
C[C@@H]1[C@@H](C)C/C=C/[C@@](O)(C#CCCN(C)C)[C@@H]2CC[C@H]2CN2C[C@@]3(CCCc4cc(Cl)ccc43)COc3ccc(cc32)C(=O)NS1(=O)=O [Example 100309, (1S,3′R,6′R,7′S,8′E,11′S,12′R)-6-chloro-7′-(4-(dimethylamino)-1-butyn-1-yl)-7′-hydroxy-11′,12′-dimethyl-3,4-dihydro-2H,15′H-spiro[naphthalene-1,22′-[20]oxa[13]thia[1,14]diazatetracyclo [14.7.2.0~3,6~.0~19,24~]pentacosa[8,16,18,24]tetraen]-15′-one 13′,13′-dioxide]	9.61	6.41	
C[C@@H]1[C@@H](C)C/C=C/[C@@](O)(CC(=O)N2CCN3CCOC[C@H]3C2)[C@@H]2CC[C@H]2CN2C[C@@]3(CCCc4cc(Cl)ccc43)COc3ccc(cc32)C(=O)NS1(=O)=O [Example 100311, (1S,3′R,6′R,7′S,8′E,11′S,12′R)-6-chloro-7′-(2-((9aR)-hexahydropyrazino[2,1-c][1,4]oxazin-8(1H)-yl)-2-oxoethyl)-7′-hydroxy-11′,12′-dimethyl-3,4-dihydro-2H,15′H-spiro[naphthalene-1,22′-[20]oxa[13]thia[1,14]diazatetracyclo [14.7.2.0~3,6~.0~19,24~]pentacosa[8,16,18,24]tetraen]-15′-one 13′,13′-dioxide]	8.99		5.92
CO[C@@]1(CS(=O)(=O)C(C)C)/C=C/C[C@H](C)[C@@H](C)S(=O)(=O)NC(=O)c2ccc3c(c2)N(C[C@@H]2CC[C@H]21)C[C@@]1(CCCc2cc(Cl)ccc21)CO3 [Example 100316, (1S,3′R,6′R,7′S,8′E,11′S,12′R)-6-chloro-7′-methoxy-11′,12′-dimethyl-7′-((2-propanylsulfonyl)methyl)-3,4-dihydro-2H,15′H-spiro[naphthalene-1,22′-[20]oxa[13]thia[1,14]diazatetracyclo [14.7.2.0~3,6~.0~19,24~]pentacosa[8,16,18,24]tetraen]-15′-one 13′,13′-dioxide]	9.56	6.43	
CO[C@]1(CC(=O)N2CC[C@@H](N(C)C)C2)/C=C/C[C@H](C)[C@@H](C)S(=O)(=O)NC(=O)c2ccc3c(c2)N(C[C@@H]2CC[C@H]21)C[C@@]1(CCCc2cc(Cl)ccc21)CO3 [Example 100317, (1S,3′R,6′R,7′R,8′E,11′S,12′R)-6-chloro-7′-(2-((3R)-3-(dimethylamino)-1-pyrrolidinyl)-2-oxoethyl)-7′-methoxy-11′,12′-dimethyl-3,4-dihydro-2H,15′H-spiro[naphthalene-1,22′-[20]oxa[13]thia[1,14]diazatetracyclo [14.7.2.0~3,6~.0~19,24~]pentacosa[8,16,18,24]tetraen]-15′-one 13′,13′-dioxide]	9.73		6.80
C[C@@H]1[C@@H](C)C/C=C/[C@@](O)(C#CCN2CCOCC2)[C@@H]2CC[C@H]2CN2C[C@@]3(CCCc4cc(Cl)ccc43)COc3ccc(cc32)C(=O)NS1(=O)=O [Example 100320, (1S,3′R,6′R,7′S,8′E,11′S,12′R)-6-chloro-7′-hydroxy-11′,12′-dimethyl-7′-(3-(4-morpholinyl)-1-propyn-1-yl)-3,4-dihydro-2H,15′H-spiro[naphthalene-1,22′-[20]oxa[13]thia[1,14]diazatetracyclo [14.7.2.0~3,6~.0~19,24~]pentacosa[8,16,18,24]tetraen]-15′-one 13′,13′-dioxide]	8.92	5.67	
CO[C@]1(CC=O)/C=C/C[C@H](C)[C@@H](C)S(=O)(=O)NC(=O)c2ccc3c(c2)N(C[C@@H]2CC[C@H]21)C[C@@]1(CCCc2cc(Cl)ccc21)CO3 [Example 100322, ((1S,3′R,6′R,7′R,8′E,11′S,12′R)-6-chloro-7′-methoxy-11′,12′-dimethyl-13′,13′-dioxido-15′-oxo-3,4-dihydro-2H-spiro[naphthalene-1,22′-[20]oxa[13]thia[1,14]diazatetracyclo [14.7.2.0~3,6~.0~19,24~]pentacosa[8,16,18,24]tetraen]-7′-yl)acetaldehyde]	8.65		5.81
CO[C@@]1(CC=O)/C=C/C[C@H](C)[C@@H](C)S(=O)(=O)NC(=O)c2ccc3c(c2)N(C[C@@H]2CC[C@H]21)C[C@@]1(CCCc2cc(Cl)ccc21)CO3 [Example 100323, ((1S,3′R,6′R,7′S,8′E,11′S,12′R)-6-chloro-7′-methoxy-11′,12′-dimethyl-13′,13′-dioxido-15′-oxo-3,4-dihydro-2H-spiro[naphthalene-1,22′-[20]oxa[13]thia[1,14]diazatetracyclo [14.7.2.0~3,6~.0~19,24~]pentacosa[8,16,18,24]tetraen]-7′-yl)acetaldehyde]	9.32		5.90
C[C@@H]1[C@@H](C)C/C=C/[C@@](O)(C#CCCN2CCOCC2)[C@@H]2CC[C@H]2CN2C[C@@]3(CCCc4cc(Cl)ccc43)COc3ccc(cc32)C(=O)NS1(=O)=O [Example 100327, (1S,3′R,6′R,7′S,8′E,11′S,12′R)-6-chloro-7′-hydroxy-11′,12′-dimethyl-7′-(4-(4-morpholinyl)-1-butyn-1-yl)-3,4-dihydro-2H,15′H-spiro[naphthalene-1,22′-[20]oxa[13]thia[1,14]diazatetracyclo [14.7.2.0~3,6~.0~19,24~]pentacosa[8,16,18,24]tetraen]-15′-one 13′,13′-dioxide]	9.53	6.26	
C[C@@H]1[C@@H](C)CCC[C@](C)([C@H]2OC[C@@H](N(C)C)CO2)[C@@H]2CC[C@H]2CN2C[C@@]3(CCCc4cc(Cl)ccc43)COc3ccc(cc32)C(=O)NS1(=O)=O [Example 100328, (1S,3′R,6′R,7′S,11′S,12′R)-6-chloro-7′-(cis-5-(dimethylamino)-1,3-dioxan-2-yl)-7′,11′,12′-trimethyl-3,4-dihydro-2H,15′H-spiro[naphthalene-1,22′-[20]oxa[13]thia[1,14]diazatetracyclo [14.7.2.0~3,6~.0~19,24~]pentacosa[16,18,24]trien]-15′-one 13′,13′-dioxide]	9.58		6.74
C[C@@H]1[C@@H](C)CCC[C@@](O)(CC[S@@+](C)[O-])[C@@H]2CC[C@H]2CN2C[C@@]3(CCCc4cc(Cl)ccc43)COc3ccc(cc32)C(=O)NS1(=O)=O [Example 100329, (1S,3′R,6′R,7′R,11′S,12′R)-6-chloro-7′-hydroxy-11′,12′-dimethyl-7′-(2-((R)-methylsulfinyl)ethyl)-3,4-dihydro-2H,15′H-spiro[naphthalene-1,22′-[20]oxa[13]thia[1,14]diazatetracyclo [14.7.2.0~3,6~.0~19,24~]pentacosa[16,18,24]trien]-15′-one 13′,13′-dioxide]	8.30		5.81
